What is called pIC50 is the IC50 on a negative log10 scale, so that one unit is a factor of ten.

SMILES strings stand for the structures. pIC50: −log10 of the molar value. Bounds are passed on as bounds.

The target of the assay is T1, SHP2 full-length protein (Homo sapiens, UniProt Q06124).
T1 construct: purchased BPS Bioscience #79330
T1 sequence (Q06124 1-593): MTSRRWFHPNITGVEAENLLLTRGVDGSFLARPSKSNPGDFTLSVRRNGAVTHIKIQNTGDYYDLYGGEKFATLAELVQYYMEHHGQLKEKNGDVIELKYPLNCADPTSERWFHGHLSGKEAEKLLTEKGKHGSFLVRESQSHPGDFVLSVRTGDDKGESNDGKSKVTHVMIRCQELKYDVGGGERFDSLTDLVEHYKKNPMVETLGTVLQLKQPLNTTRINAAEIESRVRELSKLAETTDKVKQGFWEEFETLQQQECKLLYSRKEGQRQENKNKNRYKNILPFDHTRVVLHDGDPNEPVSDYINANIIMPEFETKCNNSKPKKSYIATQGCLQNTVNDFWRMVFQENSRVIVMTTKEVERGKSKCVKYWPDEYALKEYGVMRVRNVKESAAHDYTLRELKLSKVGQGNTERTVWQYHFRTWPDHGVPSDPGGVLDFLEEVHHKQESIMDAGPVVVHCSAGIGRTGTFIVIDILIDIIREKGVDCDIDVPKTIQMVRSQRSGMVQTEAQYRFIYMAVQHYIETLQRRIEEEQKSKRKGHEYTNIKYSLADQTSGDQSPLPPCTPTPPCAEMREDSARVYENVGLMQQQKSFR
Put plainly: SHP2 allosteric inhibition experiment (Homogeneous Full Length SHP-2 Assay Kit). Format: biochemical. The settings on record: full-length SHP2 0.06 nM with SHP-2 activating peptide; ten-point, 1 μM to 0.05 nM; read-out: IC50 Values of Compounds Inhibiting SHP2.
`C[C@@H]1OCC2(CCN(c3cnc(Sc4cccc(-c5cncnc5)c4Cl)nc3)CC2)[C@@H]1N` [Compound 103, (3S,4S)-8-(2-((2-chloro-3-(pyrimidine-5-yl)phenyl)mercapto)pyrimidine-5-yl)-3-methyl-2-oxa-8-azaspiro[4.5]decane-4-amine]: the pIC50 is at least 8.00.

Take `C[C@@H]1OCC2(CCN(c3cnc(Sc4cccc(-c5cnccn5)c4Cl)nc3)CC2)[C@@H]1N` [Compound 104, (3S,4S)-8-(2-((2-chloro-3-(pyrazine-2-yl)phenyl)mercapto)pyrimidine-5-yl)-3-methyl-2-oxa-8-azaspiro[4.5]decane-4-amine]: the pIC50 is at least 8.00. Turning to `C[C@@H]1OCC2(CCN(c3cnc(Sc4cccc(-c5cccnc5)c4Cl)nc3)CC2)[C@@H]1N` [Compound 105, (3S,4S)-8-(2-((2-chloro-3-(pyridine-3-yl)phenyl)mercapto)pyrimidine-5-yl)-3-methyl-2-oxa-8-azaspiro[4.5]decane-4-amine], the pIC50 was at least 8.00.

For the compound `C[C@@H]1OCC2(CCN(c3cnc(Sc4cccc(-c5ccncn5)c4Cl)nc3)CC2)[C@@H]1N` [Compound 106, (3S,4S)-8-(2-((2-chloro-3-(pyrimidine-4-yl)phenyl)mercapto)pyrimidine-5-yl)-3-methyl-2-oxa-8-azaspiro[4.5]decane-4-amine], the negative logarithm of the IC50 (pIC50) is at least 8.00. The same measure for `C[C@@H]1OCC2(CCN(c3cnc(Sc4cccc(Nc5cccnc5)c4Cl)nc3)CC2)[C@@H]1N` [Compound 107, (3S,4S)-8-(2-((2-chloro-3-(pyridine-3-amino)phenyl)mercapto)pyrimidine-5-yl)-3-me thyl-2-oxa-8-azaspiro[4.5]decane-4-amine]: 7.00 to 8.00; for `C[C@@H]1OCC2(CCN(c3cnc(Sc4cccc(Nc5ncccn5)c4Cl)nc3)CC2)[C@@H]1N` [Compound 108, (3S,4S)-8-(2-((2-chloro-3-(pyrimidine-2-amino)phenyl)mercapto)pyrimidine-5-yl)-3-methyl-2-oxa-8-azaspiro[4.5]decane-4-amine]: 7.00 to 8.00. For `C[C@@H]1OCC2(CCN(c3cnc(Sc4cccc(Nc5cnccn5)c4Cl)nc3)CC2)[C@@H]1N` [Compound 109, (3S,4S)-8-(2-((2-chloro-3-(pyrazine-2-amino)phenyl)mercapto)pyrimidine-5-yl)-3-me thyl-2-oxa-8-azaspiro[4.5]decane-4-amine] the value was 7.00 to 8.00; for `C[C@@H]1OCC2(CCN(c3cnc(Sc4cccc(Nc5ccncn5)c4Cl)nc3)CC2)[C@@H]1N` [Compound 110, (3S,4S)-8-(2-((2-chloro-3-(pyrimidine-4-amino)phenyl)mercapto)pyrimidine-5-yl)-3-methyl-2-oxa-8-azaspiro[4.5]decane-4-amine], 7.00 to 8.00; for `C[C@@H]1OCC2(CCN(c3ncc(Sc4cccc(-c5ccn(C)n5)c4Cl)cn3)CC2)[C@@H]1N` [Compound 111, (3S,4S)-8-(5-((2-chloro-3-(1-methyl-1H-pyrazole-3-yl)phenyl)mercapto)pyrimidine-2-yl)-3-methyl-2-oxa-8-azaspiro[4.5]decane-4-amine], 7.00 to 8.00. As to `CCn1ccc(-c2cccc(Sc3cnc(N4CCC5(CC4)CO[C@@H](C)[C@H]5N)nc3)c2Cl)n1` [Compound 112, (3S,4S)-8-(5-((2-chloro-3-(1-ethyl-1H-pyrazole-3-yl)phenyl)mercapto)pyrimidine-2-yl)-3-methyl-2-oxa-8-azaspiro[4.5]decane-4-amine], the negative logarithm of the IC50 (pIC50) was 7.00 to 8.00. With `CC(C)n1ccc(-c2cccc(Sc3cnc(N4CCC5(CC4)CO[C@@H](C)[C@H]5N)nc3)c2Cl)n1` [Compound 113, (3S,4S)-8-(5-((2-chloro-3-(1-isopropyl-1H-pyrazole-3-yl)phenyl)mercapto)pyrimidine-2-yl)-3-methyl-2-oxa-8-azaspiro[4.5]decane-4-amine], the negative-log IC50 (pIC50) is 7.00 to 8.00.

`C[C@@H]1OCC2(CCN(c3ncc(Sc4cccc(NC(=O)c5c(O)nc6n(c5=O)CCCC6)c4Cl)cn3)CC2)[C@@H]1N` [Compound 114, N-(3-((2-((3S,4S)-4-amino-3-methyl-2-oxa-8-azaspiro[4.5]decane-8-yl)pyrimidine-5-yl)mercapto)-2-chlorophenyl)-2-hydroxyl-4-oxo-6,7,8,9-tetrahydro-4H-pyridinyl[1,2-a]pyrimidine-3-carboxamide]: the negative-log IC50 (pIC50) was 7.00 to 8.00.

In the case of `C[C@@H]1OCC2(CCN(c3ncc(Sc4cccc(-c5cncnc5)c4Cl)cn3)CC2)[C@@H]1N` [Compound 115, (3S,4S)-8-(5-((2-chloro-3-(pyrimidine-5-yl)phenyl)mercapto)pyrimidine-2-yl)-3-methyl-2-oxa-8-azaspiro[4.5]decane-4-amine], the negative logarithm of the IC50 (pIC50) is at least 8.00.

As to `C[C@@H]1OCC2(CCN(c3ncc(Sc4cccc(-c5cnccn5)c4Cl)cn3)CC2)[C@@H]1N` [Compound 116, (3S,4S)-8-(5-((2-chloro-3-(pyrazine-2-yl)phenyl)mercapto)pyrimidine-2-yl)-3-methyl-2-oxa-8-azaspiro[4.5]decane-4-amine], the negative-log IC50 (pIC50) is at least 8.00. The same measure for `C[C@@H]1OCC2(CCN(c3ncc(Sc4cccc(-c5cccnc5)c4Cl)cn3)CC2)[C@@H]1N` [Compound 117, (3S,4S)-8-(5-((2-chloro-3-(pyridine-3-yl)phenyl)mercapto)pyrimidine-2-yl)-3-methyl-2-oxa-8-azaspiro[4.5]decane-4-amine]: at least 8.00; for `C[C@@H]1OCC2(CCN(c3ncc(Sc4cccc(-c5ccncn5)c4Cl)cn3)CC2)[C@@H]1N` [Compound 118, (3S,4S)-8-(5-((2-chloro-3-(pyrimidine-4-yl)phenyl)mercapto)pyrimidine-2-yl)-3-methyl-2-oxa-8-azaspiro[4.5]decane-4-amine]: at least 8.00. On to `C[C@@H]1OCC2(CCN(c3ncc(Sc4cccc(Nc5cccnc5)c4Cl)cn3)CC2)[C@@H]1N` [Compound 119, (3S,4S)-8-(5-((2-chloro-3-(pyridine-3-amino)phenyl)mercapto)pyrimidine-2-yl)-3-me thyl-2-oxa-8-azaspiro[4.5]decane-4-amine], for which the negative logarithm of the IC50 (pIC50) is at least 8.00. As to `C[C@@H]1OCC2(CCN(c3ncc(Sc4cccc(Nc5ncccn5)c4Cl)cn3)CC2)[C@@H]1N` [Compound 120, (3S,4S)-8-(5-((2-chloro-3-(pyrimidine-2-amino)phenyl)mercapto)pyrimidine-2-yl)-3-methyl-2-oxa-8-azaspiro[4.5]decane-4-amine], the pIC50 is at least 8.00. Regarding `C[C@@H]1OCC2(CCN(c3ncc(Sc4cccc(Nc5cnccn5)c4Cl)cn3)CC2)[C@@H]1N` [Compound 121, (3S,4S)-8-(5-((2-chloro-3-(pyrazine-2-amino)phenyl)mercapto)pyrimidine-2-yl)-3-me thyl-2-oxa-8-azaspiro[4.5]decane-4-amine], the pIC50 is at least 8.00.

Consider `C[C@@H]1OCC2(CCN(c3ncc(Sc4cccc(Nc5ccncn5)c4Cl)cn3)CC2)[C@@H]1N` [Compound 122, (3S,4S)-8-(5-((2-chloro-3-(pyrimidine-4-amino)phenyl)mercapto)pyrimidine-2-yl)-3-methyl-2-oxa-8-azaspiro[4.5]decane-4-amine], for which the pIC50 was at least 8.00. The same measure for `C[C@@H]1OCC2(CCN(c3ncc(Sc4cccc(NC(=O)c5ncccn5)c4Cl)cn3)CC2)[C@@H]1N` [Compound 123, N-(3-((2-((3S,4S)-4-amino-3-methyl-2-oxa-8-azaspiro[4.5]decane-8-yl I)pyrimidine-5-yl)mercapto)-2-chlorophenyl)pyrimidine-2-carboxamide]: at least 8.00.

Source of the values: US20240270759A1, “Preparation of SHP2 phosphatase inhibitors and its applications” (Ya Therapeutics Inc, priority 2021, published 2024).
